Measured values reported in ChEMBL document CHEMBL5620381, “Design, synthesis and antitubercular activity of novel N-(amino)piperazinyl benzothiazinones with improved safety” (Eur J Med Chem, 2023).
Converted amounts (≈) assume the structure as drawn.

Tests used:
[1] = Selectivity index, ratio of CC50 for human THP-1 cells to MIC for Mycobacterium tuberculosis H37Rv […]; assay type: toxicity; details: read-out: Selectivity Index
[2] = Cytotoxicity against human THP-1 cells incubated for 48 hrs by MTS/PMS assay; assay type: toxicity, cell-based
[3] = tested on: Mycobacterium tuberculosis; assay: Antitubercular activity against Mycobacterium tuberculosis H37Rv […] incubated for 8 days by MABA; assay type: functional; details: 192 h, time 8 day
[4] = Cmax in ICR mouse at 25 mg/kg, po measured upto 24 hrs by HPLC analysis; assay type: ADME, organism-based; details: in vivo
[5] = Half-life in ICR mouse at 25 mg/kg, po measured upto 24 hrs by HPLC analysis; assay type: ADME, organism-based; details: in vivo
[6] = Toxicity in ICR mouse assessed as animal death at 500 mg/kg, po administered as single dose and measured for 7 days; assay type: organism-based; details: in vivo, 168 h, time 7 day
[7] = Tmax in ICR mouse at 25 mg/kg, po measured upto 24 hrs by HPLC analysis; assay type: ADME, organism-based; details: in vivo
[8] = Toxicity in po dosed ICR mouse administered as single dose and measured for 7 days; assay type: organism-based; details: in vivo, time 7 day
[9] = AUC(0 to infinity) in ICR mouse at 25 mg/kg, po measured upto 24 hrs by HPLC analysis; assay type: ADME, organism-based; details: in vivo
[10] = Mean residence time in ICR mouse at 25 mg/kg, po measured upto 24 hrs by HPLC analysis; assay type: ADME, organism-based; details: in vivo
[11] = biological target: hERG (KCNH2) (Homo sapiens, UniProt Q12809); assay: Inhibition of human ERG expressed in HEK293 cells at 10 uM by whole cell patch clamp assay relative to control; assay type: toxicity, cell-based; details: HEK293 cells expressing human ERG
Chain of hERG (KCNH2) (Q12809 whole entry): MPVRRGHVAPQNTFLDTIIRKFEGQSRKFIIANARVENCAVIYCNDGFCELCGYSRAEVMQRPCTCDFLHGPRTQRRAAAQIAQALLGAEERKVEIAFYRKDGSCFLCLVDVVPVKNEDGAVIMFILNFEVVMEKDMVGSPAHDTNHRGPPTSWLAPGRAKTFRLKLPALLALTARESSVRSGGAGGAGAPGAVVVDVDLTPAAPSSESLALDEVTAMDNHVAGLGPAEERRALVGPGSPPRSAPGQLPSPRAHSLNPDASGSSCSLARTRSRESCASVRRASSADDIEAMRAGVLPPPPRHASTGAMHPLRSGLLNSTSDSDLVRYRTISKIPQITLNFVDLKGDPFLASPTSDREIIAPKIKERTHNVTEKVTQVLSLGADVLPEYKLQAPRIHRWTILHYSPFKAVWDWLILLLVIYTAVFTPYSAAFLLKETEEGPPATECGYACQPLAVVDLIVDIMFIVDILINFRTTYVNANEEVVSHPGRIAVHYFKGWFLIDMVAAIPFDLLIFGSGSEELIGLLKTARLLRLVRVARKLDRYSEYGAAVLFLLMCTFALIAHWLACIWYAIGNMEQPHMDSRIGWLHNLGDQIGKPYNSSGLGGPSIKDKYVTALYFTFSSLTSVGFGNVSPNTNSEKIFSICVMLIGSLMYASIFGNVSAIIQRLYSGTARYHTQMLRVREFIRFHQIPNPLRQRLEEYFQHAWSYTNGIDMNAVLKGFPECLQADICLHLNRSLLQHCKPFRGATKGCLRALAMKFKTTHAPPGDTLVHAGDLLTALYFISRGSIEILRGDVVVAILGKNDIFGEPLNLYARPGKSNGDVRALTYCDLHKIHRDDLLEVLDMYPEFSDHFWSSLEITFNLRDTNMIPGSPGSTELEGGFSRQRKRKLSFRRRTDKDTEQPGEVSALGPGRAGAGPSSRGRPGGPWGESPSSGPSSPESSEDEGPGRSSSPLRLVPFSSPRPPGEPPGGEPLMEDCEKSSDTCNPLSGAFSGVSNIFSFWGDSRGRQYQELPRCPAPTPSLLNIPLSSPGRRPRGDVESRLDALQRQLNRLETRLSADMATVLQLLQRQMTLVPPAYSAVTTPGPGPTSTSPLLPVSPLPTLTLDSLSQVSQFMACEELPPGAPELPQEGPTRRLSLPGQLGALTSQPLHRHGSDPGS

[12] = Toxicity in ICR mouse assessed as increase in body weight at 500 mg/kg, po administered as single dose and measured for 7 days; assay type: organism-based; details: in vivo, 168 h, time 7 day
[13] = Toxicity in ICR mouse assessed as depression at 500 mg/kg, po administered as single dose and measured on next day; assay type: organism-based; details: in vivo, 24 h, time 1 day
[14] = Toxicity in ICR mouse assessed as depression at 500 mg/kg, po administered as single dose and measured after 3 to 7 days; assay type: organism-based; details: in vivo, time 3-7 day

Row | SMILES | selectivity ratio [1] | CC50 at 48 h [2] | MIC [3] | inhibition at 10 µM [11] | also measured
1 | O=c1nc(N2CCN(NC3CCCCC3)CC2)sc2c([N+](=O)[O-])cc(C(F)(F)F)cc12 | > 4200 | > 64 µg/mL | < 0.001 µg/mL |  | 
2 | CON=C1CCC(N(C)N2CCN(c3nc(=O)c4cc(C(F)(F)F)cc([N+](=O)[O-])c4s3)CC2)CC1 (centres undefined) | > 4200 | > 64 µg/mL | < 0.001 µg/mL |  | 
3 | O=c1nc(N2CCN(NC3CCCCCCC3)CC2)sc2c([N+](=O)[O-])cc(C(F)(F)F)cc12 | > 4200 | 46.9 µg/mL (≈ 96.7 µM) | < 0.001 µg/mL |  | 
4 | CN(C1CCC(C)(C)CC1)N1CCN(c2nc(=O)c3cc(C(F)(F)F)cc([N+](=O)[O-])c3s2)CC1 | > 4200 | > 64 µg/mL | < 0.001 µg/mL | 6.1% | Cmax [4]: 501 ng/mL; half-life [5]: 5.07 h; Activity [6]: Non-Toxic; Tmax [7]: 0.5 h; LD50 at 168 h [8]: > 500 mg/kg; AUC(0-inf) [9]: 1190 ng·h/mL; MRT [10]: 3.91 h; Activity [12]: Toxic
5 | CN(C1C2CC3CC(C2)CC1C3)N1CCN(c2nc(=O)c3cc(C(F)(F)F)cc([N+](=O)[O-])c3s2)CC1 (centres undefined) | > 4200 | > 64 µg/mL | 0.0025 µg/mL (≈ 0.00477 µM) |  | 
6 | CC1CC(N(C)N2CCN(c3nc(=O)c4cc(C(F)(F)F)cc([N+](=O)[O-])c4s3)CC2)CC(C)(C)C1 (centres undefined) | > 4200 | > 64 µg/mL | < 0.001 µg/mL |  | 
7 | CON=C1CCC(N(C)N2CCN(c3nc(=O)c4cc(C(F)(F)F)cc([N+](=O)[O-])c4s3)CC2(C)C)CC1 (centres undefined) | > 4200 | 4.91 µg/mL (≈ 9.05 µM) | 0.0631 µg/mL (≈ 0.116 µM) |  | 
8 | CN(C1CCC2(CCCCC2)CC1)N1CCN(c2nc(=O)c3cc(C(F)(F)F)cc([N+](=O)[O-])c3s2)CC1 | > 4200 | 51.9 µg/mL (≈ 96.2 µM) | < 0.001 µg/mL |  | 
9 | CC1CCC(C)C(N(C)N2CCN(c3nc(=O)c4cc(C(F)(F)F)cc([N+](=O)[O-])c4s3)CC2)C1 (centres undefined) | > 4200 | > 64 µg/mL | < 0.001 µg/mL |  | 
10 | CN(C1CCCCC1)N1CCN(c2nc(=O)c3cc(C(F)(F)F)cc([N+](=O)[O-])c3s2)CC1 | > 4200 | > 64 µg/mL | < 0.001 µg/mL | 27.3% | 
11 | CN(C1CCC(C)(C)CC1)N1CCN(c2nc(=O)c3cc(C(F)(F)F)cc([N+](=O)[O-])c3s2)CC1(C)C | > 4200 | > 64 µg/mL | < 0.001 µg/mL | 18.1% | Activity [13]: Toxic; Activity [6]: Non-Toxic; LD50 at 168 h [8]: > 500 mg/kg; Activity [14]: Non-Toxic; Activity [12]: Toxic
12 | CN(C1CCCCC1)N1CCN(c2nc(=O)c3cc(C(F)(F)F)cc([N+](=O)[O-])c3s2)CC1(C)C | > 4200 | > 64 µg/mL | 0.0015 µg/mL (≈ 0.003 µM) | 45.7% | 
13 | CC1CCC(N(C)N2CCN(c3nc(=O)c4cc(C(F)(F)F)cc([N+](=O)[O-])c4s3)CC2)CC1 (centres undefined) | > 4200 | > 64 µg/mL | < 0.001 µg/mL | 32.7% | 
14 | CN(C1CCCCCCC1)N1CCN(c2nc(=O)c3cc(C(F)(F)F)cc([N+](=O)[O-])c3s2)CC1 | > 4200 | > 64 µg/mL | < 0.001 µg/mL |  | 
15 | CC1(C)CCC(NN2CCN(c3nc(=O)c4cc(C(F)(F)F)cc([N+](=O)[O-])c4s3)CC2)CC1 | > 4200 | 58.1 µg/mL (≈ 120 µM) | < 0.001 µg/mL | 19.9% | Cmax [4]: 755 ng/mL; half-life [5]: 1.23 h; Activity [6]: Non-Toxic; Tmax [7]: 0.25 h; LD50 at 168 h [8]: > 500 mg/kg; AUC(0-inf) [9]: 971 ng·h/mL; MRT [10]: 1.63 h; Activity [12]: Toxic
16 | CN(C1CCC(=NOC(C)(C)C)CC1)N1CCN(c2nc(=O)c3cc(C(F)(F)F)cc([N+](=O)[O-])c3s2)CC1 (centres undefined) | > 4200 | > 64 µg/mL | 0.00721 µg/mL (≈ 0.013 µM) |  | 
17 | O=c1nc(N2CCN(NC3CCC(F)(F)CC3)CC2)sc2c([N+](=O)[O-])cc(C(F)(F)F)cc12 | > 4200 | > 64 µg/mL | 0.00311 µg/mL (≈ 0.0063 µM) | 46.8% | 
18 | CC1CCCCC1NN1CCN(c2nc(=O)c3cc(C(F)(F)F)cc([N+](=O)[O-])c3s2)CC1 (centres undefined) | > 4200 | 48.7 µg/mL (≈ 103 µM) | 0.0014 µg/mL (≈ 0.00297 µM) |  | 
19 | CON=C1CCC(N(C)N2CCN(c3nc(=O)c4cc(C(F)(F)F)cc([N+](=O)[O-])c4s3)CC2C)CC1 (centres undefined) | > 4200 | 12.3 µg/mL (≈ 23.3 µM) | 0.0143 µg/mL (≈ 0.0271 µM) | 23.1% | 
20 | CN(C1CCC(F)(F)CC1)N1CCN(c2nc(=O)c3cc(C(F)(F)F)cc([N+](=O)[O-])c3s2)CC1 | > 4200 | > 64 µg/mL | < 0.001 µg/mL |  | 
21 | CCON=C1CCC(N(C)N2CCN(c3nc(=O)c4cc(C(F)(F)F)cc([N+](=O)[O-])c4s3)CC2)CC1 (centres undefined) | > 4200 | 50.1 µg/mL (≈ 94.8 µM) | 0.0118 µg/mL (≈ 0.0223 µM) |  | 
22 | CC1CN(c2nc(=O)c3cc(C(F)(F)F)cc([N+](=O)[O-])c3s2)CCN1N(C)C1CCC(C)(C)CC1 (centres undefined) | > 4200 | > 64 µg/mL | < 0.001 µg/mL | 35.5% | Activity [13]: Toxic; Activity [6]: Non-Toxic; LD50 at 168 h [8]: > 500 mg/kg; Activity [14]: Non-Toxic; Activity [12]: Toxic
23 | CC1CCC(NN2CCN(c3nc(=O)c4cc(C(F)(F)F)cc([N+](=O)[O-])c4s3)CC2)CC1 (centres undefined) | > 4200 | > 64 µg/mL | < 0.001 µg/mL |  | 
24 | CC1CN(c2nc(=O)c3cc(C(F)(F)F)cc([N+](=O)[O-])c3s2)CCN1N(C)C1CCCCC1 (centres undefined) | > 4200 | > 64 µg/mL | < 0.001 µg/mL |  | 
25 | CC1CCCCC1N(C)N1CCN(c2nc(=O)c3cc(C(F)(F)F)cc([N+](=O)[O-])c3s2)CC1 (centres undefined) | > 4200 | > 64 µg/mL | 0.00135 µg/mL (≈ 0.00278 µM) |  | 
26 | CN(CC1CCC(F)(F)CC1)N1CCN(c2nc(=O)c3cc(C(F)(F)F)cc([N+](=O)[O-])c3s2)CC1 | > 4200 | > 64 µg/mL | < 0.001 µg/mL |  | 
27 | NNC(=O)c1ccncc1 [ISONIAZID] |  | > 64 µg/mL | 0.0374 µg/mL (≈ 0.273 µM) |  | 
28 | O=c1nc(N2CCN(CC3CCCCC3)CC2)sc2c([N+](=O)[O-])cc(C(F)(F)F)cc12 [MACOZINONE] |  | > 64 µg/mL | < 0.001 µg/mL |  | 
29 | CO[C@H]1/C=C/O[C@@]2(C)Oc3c(C)c(O)c4c(O)c(c(/C=N/N5CCN(C)CC5)c(O)c4c3C2=O)NC(=O)/C(C)=C\C=C\[C@H](C)[C@H](O)[C@@H](C)[C@@H](O)[C@@H](C)[C@H](OC(C)=O)[C@@H]1C [RIFAMPIN] |  | > 64 µg/mL | 0.019 µg/mL (≈ 0.0231 µM) |  | 
